Data as given in patent US9868711B2, “Phenazine-3-one and phenothiazine-3-one derivatives for treatment of oxidative stress disorders” (BioElectron Technology Corporation, priority 2013, dated 2018).
Where two headings read alike, the source gives them in different places.

Tested on: Human dermal fibroblasts from Friedreich's Ataxia patients
Assay: Rescue of FRDA fibroblasts stressed by BSO (Calcein AM viability)
Assay type: cell-based
Conditions: FRDA fibroblasts GM04078, 1 mM BSO, 48 h
Procedure: An initial screen was performed to identify compounds effective for the amelioration of redox disorders. Test samples, 4 reference compounds (idebenone, decylubiquinone, Trolox and alpha-tocopherol), and solvent controls were tested for their ability to rescue FRDA fibroblasts stressed by addition of L-buthionine-(S,R)-sulfoximine (BSO), as described in Jauslin et al., Hum. Mol. Genet. 11(24):3055 (2002), Jauslin et al., FASEB J. 17:1972-4 (2003), and International Patent Application WO 2004/003565. […] This specific BSO-mediated cell death can be prevented by administration of antioxidants or molecules involved in the antioxidant pathway, such as alpha-tocopherol, selenium, or small molecule glutathione peroxidase mimetics. However, antioxidants differ in their potency, i.e. the concentration at which they are able to rescue BSO-stressed FRDA fibroblasts.
MEM (a medium enriched in amino acids and vitamins, catalog no. 1-31F24-I) and Medium 199 (M199, catalog no. 1-21F22-I) with Earle's Balanced Salts, without phenol red, were purchased from Bioconcept. Fetal Calf Serum was obtained from PAA Laboratories. Basic fibroblast growth factor and epidermal growth factor were purchased from PeproTech. Penicillin-streptomycin-glutamine mix, L-buthionine (S,R)-sulfoximine, (+)-alpha-tocopherol, decylubiquinone, and insulin from bovine pancreas were purchased from Sigma. Trolox (6-Hydroxy-2,5,7,8-tetramethylchromane-2-carboxylic acid) was obtained from Fluka. Idebenone was obtained from Chemo Iberica. Calcein AM was purchased from Anaspec. Cell culture medium was made by combining 125 ml M199 EBS, 50 ml Fetal Calf Serum, 100 U/ml penicillin, 100 microgram/ml streptomycin, 2 mM glutamine, 10 microgram/ml insulin, 10 ng/ml EGF, and 10 ng/ml bFGF; MEM EBS was added to make the volume up to 500 ml. A 10 mM BSO solution was prepared by dissolving 444 mg BSO in 200 ml of medium (Invitrogen, Carlsbad, Ca.) with subsequent filter-sterilization. During the course of the experiments, this solution was stored at +4° C. The cells were obtained from the Coriell Cell Repositories (Camden, N.J.; repository number GM04078) and grown in 10 cm tissue culture plates. Every third day, they were split at a 1:3 ratio.
The test samples were supplied in 1.5 ml glass vials. The compounds were diluted with DMSO, ethanol or PBS to result in a 5 mM stock solution. Once dissolved, they were stored at −20° C. Reference antioxidants (idebenone, decylubiquinone, alpha-tocopherol and Trolox) were dissolved in DMSO.
Test samples were screened according to the following protocol:
A culture with FRDA fibroblasts was started from a 1 ml vial with approximately 500,000 cells stored in liquid nitrogen. Cells were propagated in 10 cm cell culture dishes by splitting every third day in a ratio of 1:3 until nine plates were available. Once confluent, fibroblasts were harvested. For 54 micro titer plates (96 well-MTP) a total of 14.3 million cells (passage eight) were re-suspended in 480 ml medium, corresponding to 100 microliters medium with 3,000 cells/well. The remaining cells were distributed in 10 cm cell culture plates (500,000 cells/plate) for propagation. The plates were incubated overnight at 37° C. in a atmosphere with 95% humidity and 5% CO2 to allow attachment of the cells to the culture plate.
10% DMSO (242.5 microliters) was added to a well of the microtiter plate. The test compounds were unfrozen, and 7.5 microliters of a 5 mM stock solution was dissolved in the well containing 242.5 microliters of 10% DMSO, resulting in a 150 micromolar master solution. Serial dilutions from the master solution were made. The period between the single dilution steps was kept as short as possible (generally less than 30 seconds). At least 4 hours after attachment into MTP, cells were then treated with the various compound dilutions.
Plates were kept overnight in the cell culture incubator. […]

[1] = Homo sapiens, average, compounds of the invention, read-out: Ec50 Average

Cc1c(C)c2c(c(C)c1O)CCC(C)(C(=O)O)O2 (stereo not drawn) [Trolox, 6-Hydroxy-2,5,7,8-tetramethylchromane-2-carboxylic acid]
EC50 (Homo sapiens, first of three experiments, read-out: EC50 Value 1): 9 µM

CN(C)c1ccc2nc3ccc(=O)cc-3sc2c1 [Compound 2]
EC50 [1]: 0.003 µM

Cc1cc(=O)c(C)c2sc3ccccc3nc1-2 [Compound 1]
EC50 [1]: 0.003 µM

COC1=C(OC)C(=O)C(CCCCCCCCCCO)=C(C)C1=O [Idebenone]
EC50 (Homo sapiens, third of three experiments, read-out: EC50 Value 3): 1 µM

O=c1ccc2nc3ccc(C(F)(F)F)cc3sc-2c1 [Compound 3]
EC50 [1]: 0.028 µM

Cc1c(C)c2c(c(C)c1O)CC[C@@](C)(CCC[C@H](C)CCC[C@H](C)CCCC(C)C)O2 [alpha-tocopherol]
EC50 (average of three values, control compounds, read-out: EC50 Average): 0.3 µM
EC50 (first of three experiments, read-out: EC50 Value 1): 0.4 µM
EC50 (second of three experiments, read-out: EC50 Value 2): 0.15 µM
EC50 (third of three experiments, read-out: EC50 Value 3): 0.35 µM
